Test results published in BigSolDB 2.1.

CO/N=C(\C(=O)Sc1nc2ccccc2s1)c1csc(N)n1
Conditions | solubility (mole fraction)
in ethanol, 277.67 K | 0.000203
in ethanol, 283.11 K | 0.000248
in ethanol, 288.17 K | 0.000325
in ethanol, 293.09 K | 0.000399
in ethanol, 298.17 K | 0.000517
in ethanol, 303.09 K | 0.000688
in isobutanol, 277.67 K | 0.000148
in isobutanol, 283.07 K | 0.000171
in isobutanol, 287.99 K | 0.000206
in isobutanol, 292.79 K | 0.000268
in isobutanol, 297.77 K | 0.000345
in isobutanol, 304.27 K | 0.000531
in isopentanol, 277.65 K | 0.000183
in isopentanol, 283.07 K | 0.000215
in isopentanol, 288.37 K | 0.000286
in isopentanol, 293.03 K | 0.000371
in isopentanol, 298.17 K | 0.000472
in isopentanol, 302.63 K | 0.000622
in isopropanol, 277.91 K | 0.000116
in isopropanol, 283.21 K | 0.000142
in isopropanol, 288.05 K | 0.000168
in isopropanol, 293.19 K | 0.000211
in isopropanol, 298.13 K | 0.000283
in isopropanol, 303.13 K | 0.000365
in n-butanol, 278.11 K | 0.000262
in n-butanol, 283.53 K | 0.00032
in n-butanol, 288.37 K | 0.000424
in n-butanol, 293.03 K | 0.000525
in n-butanol, 297.73 K | 0.000662
in n-butanol, 303.71 K | 0.000962
in n-pentanol, 278.27 K | 0.000283
in n-pentanol, 283.33 K | 0.00034
in n-pentanol, 288.15 K | 0.000433
in n-pentanol, 293.23 K | 0.000564
in n-pentanol, 298.17 K | 0.000744
in n-pentanol, 303.15 K | 0.000992
in n-propanol, 277.85 K | 0.000226
in n-propanol, 283.17 K | 0.000256
in n-propanol, 288.13 K | 0.000332
in n-propanol, 293.17 K | 0.000414
in n-propanol, 297.97 K | 0.000544
in n-propanol, 302.81 K | 0.00079
